Biological target: human capsaicin receptor (VR1) (Homo sapiens, UniProt Q8NER1)
Assay: Capsaicin receptor binding assay ([3H]RTX competition, VR1-transfected HEK293 membranes)
Conditions: not given

Chain of human capsaicin receptor (VR1) (Q8NER1 whole entry): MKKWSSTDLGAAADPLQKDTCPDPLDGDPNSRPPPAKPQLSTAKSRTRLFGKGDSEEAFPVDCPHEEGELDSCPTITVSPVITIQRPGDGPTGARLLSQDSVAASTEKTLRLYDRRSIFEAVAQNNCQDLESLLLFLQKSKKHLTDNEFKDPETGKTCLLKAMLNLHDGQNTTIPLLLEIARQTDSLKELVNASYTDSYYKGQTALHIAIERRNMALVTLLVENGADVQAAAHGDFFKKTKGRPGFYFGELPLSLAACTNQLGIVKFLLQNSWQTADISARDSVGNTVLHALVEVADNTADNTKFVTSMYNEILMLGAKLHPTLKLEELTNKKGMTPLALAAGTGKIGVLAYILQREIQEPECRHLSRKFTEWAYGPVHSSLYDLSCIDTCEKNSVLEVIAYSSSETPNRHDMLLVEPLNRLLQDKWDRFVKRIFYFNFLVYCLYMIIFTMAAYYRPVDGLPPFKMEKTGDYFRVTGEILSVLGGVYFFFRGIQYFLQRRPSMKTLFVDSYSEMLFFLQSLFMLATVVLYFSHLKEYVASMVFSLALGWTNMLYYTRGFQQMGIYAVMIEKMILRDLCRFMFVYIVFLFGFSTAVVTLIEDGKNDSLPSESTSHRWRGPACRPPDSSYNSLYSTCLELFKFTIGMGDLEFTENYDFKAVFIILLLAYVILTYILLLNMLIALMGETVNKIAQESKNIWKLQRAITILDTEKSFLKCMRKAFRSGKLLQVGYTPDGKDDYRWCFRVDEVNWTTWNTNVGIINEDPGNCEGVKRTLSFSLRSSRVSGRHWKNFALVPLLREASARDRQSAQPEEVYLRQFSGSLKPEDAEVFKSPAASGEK

Structure (SMILES)	Ki [nM]
FC(F)(F)c1cccc(Nc2nc(CN3CCOCC3)nc3cc(-c4ncccc4C(F)(F)F)cnc23)n1 [Compound 545, [2-Morpholin-4-ylmethyl-7-(3-trifluoromethyl-pyridin-2-yl)-pyrido[3,2-d]pyrimidin-4-yl]-(6-trifluoromethyl-pyridin-2-yl)-amine]	< 1000
C[C@@H]1CN(Cc2nc(Nc3ccc(C(F)(F)F)cc3)c3ncc(-c4ncccc4C(F)(F)F)cc3n2)C[C@H](C)O1 [Compound 546, [2-(2,6-Dimethyl-morpholin-4-ylmethyl)-7-(3-trifluoromethyl-pyridin-2-yl)-pyrido[3,2-d]pyrimidin-4-yl]-(4-trifluoromethyl-phenyl)-amine (cis)]	< 1000
C[C@@H]1CN(Cc2nc(Nc3ccc(C(F)(F)F)nc3)c3ncc(-c4ncccc4C(F)(F)F)cc3n2)C[C@H](C)O1 [Compound 547, [2-(2,6-Dimethyl-morpholin-4-ylmethyl)-7-(3-trifluoromethyl-pyridin-2-yl)-pyrido[3,2-d]pyrimidin-4-yl]-(6-trifluoromethyl-pyridin-3-yl)-amine (cis)]	< 1000
O=S1(=O)CCN(Cc2nc(Nc3ccc(C(F)(F)F)nc3)c3ccc(-c4ncccc4C(F)(F)F)cc3n2)CC1 [Compound 553, [2-(1,1-dioxo-1λ^6-thiomorpholin-4-ylmethyl)-7-(3-trifluoromethyl-pyridin-2-yl)-quinazolin-4-yl]-(6-trifluoromethyl-pyridin-3-yl)-amine]	< 1000
FC(F)(F)c1ccc(Nc2nc(CNC3CCSCC3)nc3cc(-c4ncccc4C(F)(F)F)ccc23)cn1 [Compound 554, [2-[(Tetrahydro-thiopyran-4-ylamino)-methyl]-7-(3-trifluoromethyl-pyridin-2-yl)-quinazolin-4-yl]-(6-trifluoromethyl-pyridin-3-yl)-amine]	< 1000
FC(F)(F)c1ccc(Nc2nc(CN3CCSCC3)nc3cc(-c4ncccc4C(F)(F)F)ccc23)cn1 [Compound 555, [2-Thiomorpholin-4-ylmethyl-7-(3-trifluoromethyl-pyridin-2-yl)-quinazolin-4-yl]-(6-trifluoromethyl-pyridin-3-yl)-amine]	< 1000
CC1(C)CCCN(Cc2nc(Nc3ccc(C(F)(F)F)nc3)c3ccc(-c4ncccc4C(F)(F)F)cc3n2)C1 [Compound 556, [2-(3,3-Dimethyl-piperidin-1-ylmethyl)-7-(3-trifluoromethyl-pyridin-2-yl)-quinazolin-4-yl]-(6-trifluoromethyl-pyridin-3-yl)-amine]	< 1000
FC(F)(F)c1ccc(Nc2nc(CNCc3ccccc3)nc3cc(-c4ncccc4C(F)(F)F)ccc23)nc1 [Compound 560, [2-(Benzylamino-methyl)-7-(3-trifluoromethyl-pyridin-2-yl)-quinazolin-4-yl]-(5-trifluoromethyl-pyridin-2-yl)-amine]	< 1000

The remaining lines, values ahead:

Ki [nM]	Structure (SMILES)
< 1000	CC1CN(CCCc2nc(Nc3ccc(C(F)(F)F)nc3)c3ccc(-c4ncccc4C(F)(F)F)cc3n2)CC(C)O1 (stereo not shown) [Compound 544, [2-[3-(2,6-Dimethyl-morpholin-4-yl)-propyl]-7-(3-trifluoromethyl-pyridin-2-yl)-quinazolin-4-yl]-(6-trifluoromethyl-pyridin-3-yl)-amine]
< 1000	FC(F)(F)c1ccc(Nc2nc(CN3CCSCC3)nc3cc(-c4ncccc4C(F)(F)F)ccc23)cc1 [Compound 548, [2-Thiomorpholin-4-ylmethyl-7-(3-trifluoromethyl-pyridin-2-yl)-quinazolin-4-yl]-(4-trifluoromethyl-phenyl)-amine]
< 1000	CC1(C)CCCN(Cc2nc(Nc3ccc(C(F)(F)F)cc3)c3ccc(-c4ncccc4C(F)(F)F)cc3n2)C1 [Compound 549, [2-(3,3-Dimethyl-piperidin-1-ylmethyl)-7-(3-trifluoromethyl-pyridin-2-yl)-quinazolin-4-yl]-(4-trifluoromethyl-phenyl)-amine]
< 1000	CCCN(CCC)Cc1nc(Nc2ccc(C(F)(F)F)cc2)c2ccc(-c3ncccc3C(F)(F)F)cc2n1 [Compound 550, [2-Dipropylaminomethyl-7-(3-trifluoromethyl-pyridin-2-yl)-quinazolin-4-yl]-(4-trifluoromethyl-phenyl)-amine]
< 1000	CCCN(Cc1nc(Nc2ccc(C(F)(F)F)cc2)c2ccc(-c3ncccc3C(F)(F)F)cc2n1)CC1CC1 [Compound 551, [2-[(Cyclopropylmethyl-propyl-amino)-methyl]-7-(3-trifluoromethyl-pyridin-2-yl)-quinazolin-4-yl]-(4-trifluoromethyl-phenyl)-amine]
< 1000	CC1CC(C)CN(Cc2nc(Nc3ccc(C(F)(F)F)cc3)c3ccc(-c4ncccc4C(F)(F)F)cc3n2)C1 (stereo not shown) [Compound 552, [2-(3,5-Dimethyl-piperidin-1-ylmethyl)-7-(3-trifluoromethyl-pyridin-2-yl)-quinazolin-4-yl]-(4-trifluoromethyl-phenyl)-amine]
< 1000	CC1CN(CCc2nc(Nc3ccc(C(F)(F)F)cc3)c3ccc(-c4ncccc4C(F)(F)F)cc3n2)CC(C)O1 (stereo not shown) [Compound 561, [2-[2-(2,6-Dimethyl-morpholin-4-yl)-ethyl]-7-(3-trifluoromethyl-pyridin-2-yl)-quinazolin-4-yl]-(4-trifluoromethyl-phenyl)-amine]
< 1000	O=CN1CCN(CCc2nc(Nc3ccc(C(F)(F)F)cc3)c3ccc(-c4ncccc4C(F)(F)F)cc3n2)CC1 [Compound 562, 4-{2-[4-(4-Trifluoromethyl-phenylamino)-7-(3-trifluoromethyl-pyridin-2-yl)-quinazolin-2-yl]-ethyl}-piperazine-1-carbaldehyde]
< 1000	OCCC1CCN(CCCc2nc(Nc3ccc(C(F)(F)F)cc3)c3ccc(-c4ncccc4C(F)(F)F)cc3n2)CC1 [Compound 568, 2-(1-{3-[4-(4-Trifluoromethyl-phenylamino)-7-(3-trifluoromethyl-pyridin-2-yl)-quinazolin-2-yl]-propyl}-piperidin-4-yl)-ethanol]
< 1000	OCC1CCN(CCCc2nc(Nc3ccc(C(F)(F)F)cc3)c3ccc(-c4ncccc4C(F)(F)F)cc3n2)CC1 [Compound 569, (1-{3-[4-(4-Trifluoromethyl-phenylamino)-7-(3-trifluoromethyl-pyridin-2-yl)-quinazolin-2-yl]-propyl}-piperidin-4-yl)-methanol]
< 1000	OC1CCN(CCCc2nc(Nc3ccc(C(F)(F)F)cc3)c3ccc(-c4ncccc4C(F)(F)F)cc3n2)CC1 [Compound 570]

Same assay, conditions: Table III; capsaicin receptor binding

Ki [nM]	Structure (SMILES)
< 1000	CCCN(CCC)Cc1nc(Nc2ccc(C(F)(F)F)nc2)c2ccc(-c3ncccc3C(F)(F)F)cc2n1 [Compound 557, [2-Dipropylaminomethyl-7-(3-trifluoromethyl-pyridin-2-yl)-quinazolin-4-yl]-(6-trifluoromethyl-pyridin-3-yl)-amine]
< 1000	CCCN(Cc1nc(Nc2ccc(C(F)(F)F)nc2)c2ccc(-c3ncccc3C(F)(F)F)cc2n1)CC1CC1 [Compound 558, [2-[(Cyclopropylmethyl-propyl-amino)-methyl]-7-(3-trifluoromethyl-pyridin-2-yl)-quinazolin-4-yl]-(6-trifluoromethyl-pyridin-3-yl)-amine]
< 1000	CC1CC(C)CN(Cc2nc(Nc3ccc(C(F)(F)F)nc3)c3ccc(-c4ncccc4C(F)(F)F)cc3n2)C1 (stereo not shown) [Compound 559, [2-(3,5-Dimethyl-piperidin-1-ylmethyl)-7-(3-trifluoromethyl-pyridin-2-yl)-quinazolin-4-yl]-(6-trifluoromethyl-pyridin-3-yl)-amine]
